Measured values taken from patent EP0044212B1, “Herbicidal o-alkylsulfonyloxy- and o-alkylsulfonylamino-benzenesulfonamides” (E.I. DU PONT DE NEMOURS AND COMPANY, priority 1980, dated 1982).

Columns and labels:
Morningglory [1] = test: Test B pre-emergence on Fallsington silt loam; type: in vivo, Ipomoea hederacea; conditions: 0.03 kg/ha, 28 days
From the text: (§1) Two plastic bulb pans were filled with fertilized and limed Fallsington silt loam soil. One pan was planted with corn, sorghum, Kentucky bluegrass and several grassy weeds. The other pan was planted with cotton, soybeans, purple nutsedge (Cyperus rotundus), and several broadleaf weeds. The following grassy and broadleaf weeds were planted: crabgrass (Digitaria sanguinalis), barnyardgrass (Echinochloa crusgalli), wild oats (Avena fatua), johnsongrass (Sorghum halepense), dallisgrass (Paspalum dilatatum), giant foxtail (Setaria faberii), cheatgrass (Bromus secalinus), mustard (Brassica arvensis), cocklebur (Xanthium pensylvanicum), pigweed (Amaranthus retroflexus), morningglory (Ipomoea hederacea), cassia (Cassia tora), teaweed (Sida spinosa), velvetleaf (Abutilon theophrasti), and jimsonweed (Datura stramonium). A 12.5 cm diameter plastic pot was also filed with prepared soil and planted with rice and wheat. Another 12.5 cm pot was planted with sugarbeets. The above four containers were treated pre- emergence with several test compounds within the scope of the invention.
(§2) Twenty-eight days after treatment, the plants were evaluated and visually rated for response to the chemical treatments utilizing the rating system described previously for Test A. The data are summarized in Table B.

Johnsongrass = test: Test B pre-emergence on Fallsington silt loam; type: in vivo, Sorghum halepense; set-up: scale not given here; conditions: 0.12 kg/ha, 28 days
From the text: as §1, §2

Nutsedge [2] = test: Test F over-the-top soil/foliage treatment; type: in vivo, Cyperus rotundus; set-up: scale not given here; conditions: soil/foliage spray, ~14 days
Description: (§3) The test chemicals, dissolved in a non-phytotoxic solvent, were applied in an overall spray to the foliage and surrounding […] of selected plant species. […] Approximately fourteen days after treatment, all species were visually compared to untreated controls and rated for response to treatment.
(§4) All plant species were seeded in Woodstown sandy loam soil and grown in a greenhouse. The following species were grown in soil contained in plastic pots (25 cm diameter by 13 cm deep): soybeans, cotton, alfalfa, corn, rice, wheet, sorghum, velvetleaf (Abutilon theophrasti), sesbania (Sesbania exaltata), Cassia (Cassia tora), morningglory (Ipomoea hederacea), jimsonweed (Datura stramonium), cocklebur (Xanthium pensylvanicum), crabgrass (Digitaria spp.), nutsedge (Cyperus rotundus), barnyardgrass (Echinochloa crusgalli), giant foxtail (Setaria faberii) and wild oats (Avena fatua). The following species were grown in soil in a paper cup (12 cm diameter by 13 cm deep): sunflower, sugarbeets, and mustard. All plants were sprayed approximately 14 days after planting.

Jimsonweed = test: Test F over-the-top soil/foliage treatment; type: in vivo, Datura stramonium; conditions: soil/foliage spray; 0.06 kg/ha; ~14 days
Description: as §3, §4

Wheat [3] = test: Test F over-the-top soil/foliage treatment; type: in vivo, wheet; set-up: scale not given here; conditions: soil/foliage spray, ~14 days
Description: as §3, §4

Sesbania = test: Test F over-the-top soil/foliage treatment; type: in vivo, Sesbania exaltata; set-up: scale not given here; conditions: soil/foliage spray, ~14 days
Description: as §3, §4

Soybeans = test: Test F over-the-top soil/foliage treatment; type: in vivo; conditions: soil/foliage spray; 0.06 kg/ha; ~14 days
Description: as §3, §4

Rice = test: Test F over-the-top soil/foliage treatment; type: in vivo; conditions: soil/foliage spray; 0.06 kg/ha; ~14 days
Description: as §3, §4

Corn [4] = test: Test F over-the-top soil/foliage treatment; type: in vivo; conditions: soil/foliage spray; 0.06 kg/ha; ~14 days
Description: as §3, §4

Wheat [5] = test: Test C pre-emergence on Fallsington silt loam soil; type: in vivo; conditions: 0.06 kg/ha, 28 days
From the text: The high herbicidal activity of two of the compounds from within the scope of the invention is evident from the results obtained in this test. The experiment concerned pre-emergence applications on soil. The containers used were 25 cm diameter plastic pots filled with Fallsington silt loam. One set of pots was planted to weeds, the seeds of which were uniformly mixed with the top 1.2 cm layer of soil. The species selected were: johnsongrass (Sorghum halepense), barnyardgrass (Echinochloa crusgalli), crabgrass (Digitaria sanguinalis), giant foxtail (Setaria faberii), velvetleaf (Abutilon theophrasti), jimsonweed (Datura stramonium), mustard (Brassica arvensis), and pigweed (Amaranthus retroflexus). Another set of pots were planted to the following crops with from one to four species per pot: corn (planting depth 3.7 cm), cotton, soybeans, sunflower, Clinton oats, wheat, Black Valentine beans, rice, sorghum, peas, flax, and peanuts (all at 2.5 cm depth), cucumbers, cabbage, alfalfa, safflower, sugarbeets, tomato, spinach, barley, and Kentucky bluegrass (all at 1.2 cm depth). Immediately after planting, the test chemical was applied to the soil surfaces dissolved in a non-phytotoxic solvent. One pot from the weed phase and one of each of the crop species were left untreated for the purpose of comparison. The treated and untreated pots were promptly watered with approximatley 4 mm of simultated rainfall and then held in a greenhouse for several weeks. Visual weed and crop response ratings were made 28 days after treatment utilizing the rating system as described above for Test A. The data are given in Table C.

Morningglory [6] = test: Test F over-the-top soil/foliage treatment; type: in vivo, Ipomoea hederacea; conditions: soil/foliage spray; 0.06 kg/ha; ~14 days
Description: as §3, §4

Velvetleaf = test: Test F over-the-top soil/foliage treatment; type: in vivo, Abutilon theophrasti; conditions: soil/foliage spray; 0.015 kg/ha; ~14 days
Description: as §3, §4

Nutsedge [7] = test: Test B pre-emergence on Fallsington silt loam; type: in vivo, Cyperus rotundus; conditions: 0.03 kg/ha, 28 days
From the text: as §1, §2

Sorghum [8] = test: Test B pre-emergence on Fallsington silt loam; type: in vivo; conditions: 0.03 kg/ha, 28 days
From the text: as §1, §2

Barnyardgrass [9] = test: Test F over-the-top soil/foliage treatment; type: in vivo, Echinochloa crusgalli; set-up: scale not given here; conditions: soil/foliage spray; 0.06 kg/ha; ~14 days
Description: as §3, §4

Giant Foxtail [10] = test: Test B pre-emergence on Fallsington silt loam; type: in vivo, Setaria faberii; conditions: 0.12 kg/ha, 28 days
From the text: as §1, §2

Wild Oats = test: Test F over-the-top soil/foliage treatment; type: in vivo, Avena fatua; set-up: scale not given here; conditions: soil/foliage spray; 0.06 kg/ha; ~14 days
Description: as §3, §4

Crabgrass = test: Test F over-the-top soil/foliage treatment; type: in vivo, Digitaria spp.; set-up: scale not given here; conditions: soil/foliage spray; 0.06 kg/ha; ~14 days
Description: as §3, §4

Barnyardgrass [11] = test: Test B pre-emergence on Fallsington silt loam; type: in vivo, Echinochloa crusgalli; conditions: 0.12 kg/ha, 28 days
From the text: as §1, §2

Giant Foxtail [12] = test: Test F over-the-top soil/foliage treatment; type: in vivo, Setaria faberii; set-up: scale not given here; conditions: soil/foliage spray; 0.06 kg/ha; ~14 days
Description: as §3, §4

Pigweed = test: Test B pre-emergence on Fallsington silt loam; type: in vivo, Amaranthus retroflexus; conditions: 0.03 kg/ha, 28 days
From the text: as §1, §2

Cocklebur = test: Test B pre-emergence on Fallsington silt loam; type: in vivo, Xanthium pensylvanicum; conditions: 28 days
From the text: as §1, §2

Sugarbeets = test: Test B pre-emergence on Fallsington silt loam; type: in vivo; set-up: scale not given here; conditions: 28 days
From the text: as §1, §2

Wheat [13] = test: Test B pre-emergence on Fallsington silt loam; type: in vivo; set-up: scale not given here; conditions: 0.03 kg/ha, 28 days
From the text: as §1, §2

Corn [14] = test: Test B pre-emergence on Fallsington silt loam; type: in vivo; set-up: scale not given here; conditions: 0.12 kg/ha, 28 days
From the text: as §1, §2

Ky. bluegrass = test: Test B pre-emergence on Fallsington silt loam; type: in vivo, Kentucky bluegrass; set-up: scale not given here; conditions: 0.12 kg/ha, 28 days
From the text: as §1, §2

Alfalfa = test: Test F over-the-top soil/foliage treatment; type: in vivo; set-up: scale not given here; conditions: soil/foliage spray, ~14 days
Description: as §3, §4

Sorghum [15] = test: Test F over-the-top soil/foliage treatment; type: in vivo; set-up: scale not given here; conditions: soil/foliage spray; 0.06 kg/ha; ~14 days
Description: as §3, §4

Mustard = test: Test B pre-emergence on Fallsington silt loam; type: in vivo, Brassica arvensis; conditions: 28 days
From the text: as §1, §2

For `COc1cc(C)nc(NC(=O)NS(=O)(=O)c2ccccc2OS(C)(=O)=O)n1` [Compound 2, 2-Hydroxy-N-[(4-methoxy-6-methylpyrimidin-2-yl)aminocarbonyl]benzenesulfonamide, methanesulfonate], the Morningglory response rating (Morningglory [1]) was 7G, the Johnsongrass response rating (Johnsongrass) was 10C and the Nutsedge response rating (Nutsedge [2]; 0.015 kg/ha) was 2C. For the same compound, the Nutsedge response rating (Nutsedge [2]; 0.06 kg/ha) was 10C, the Jimsonweed response rating (Jimsonweed) was 10C and the Wheat response rating (Wheat [3]; 0.015 kg/ha) was 1C. It also gave a Wheat response rating (Wheat [3]; 0.06 kg/ha) of 9C, a Sesbania response rating (Sesbania; 0.015 kg/ha) of 9C and a Sesbania response rating (Sesbania; 0.06 kg/ha) of 10C. It also gave a Soybeans response rating (Soybeans) of 9C, a Rice response rating (Rice) of 10C and a Corn response rating (Corn [4]) of 10C. The Wheat response rating (Wheat [5]) was 5G, the Morningglory response rating (Morningglory [6]) was 10C and the Velvetleaf response rating (Velvetleaf) was 5G. It also gave a Nutsedge response rating (Nutsedge [7]) of 6G, a Sorghum response rating (Sorghum [8]) of 10C and a Barnyardgrass response rating (Barnyardgrass [9]) of 10C. For the same compound, the “Giant Foxtail response rating” value (Giant Foxtail [10]) was 10C, the “Wild Oats response rating” value (Wild Oats) was 10C and the Crabgrass response rating (Crabgrass) was 10C. For the same compound, the Barnyardgrass response rating (Barnyardgrass [11]) was 10C, the “Giant Foxtail response rating” value (Giant Foxtail [12]) was 10C and the Pigweed response rating (Pigweed) was 7G. The Cocklebur response rating (Cocklebur; 0.03 kg/ha) was 5G, the Cocklebur response rating (Cocklebur; 0.12 kg/ha) was 10C and the Sugarbeets response rating (Sugarbeets; 0.03 kg/ha) was 10C. For the same compound, the Sugarbeets response rating (Sugarbeets; 0.12 kg/ha) was 10C, the Wheat response rating (Wheat [13]) was 5G and the Corn response rating (Corn [14]) was 10C. For the same compound, the “Ky. bluegrass response rating” value (Ky. bluegrass) was 10C, the Alfalfa response rating (Alfalfa; 0.015 kg/ha) was 7C and the Alfalfa response rating (Alfalfa; 0.06 kg/ha) was 10C. For the same compound, the Sorghum response rating (Sorghum [15]) was 10C, the Mustard response rating (Mustard; 0.03 kg/ha) was 10C and the Mustard response rating (Mustard; 0.12 kg/ha) was 10C.
